Results as given in the NIST ThermoML archive (doi:10.1021/acs.jced.7b00939).
“And” between values parts separate entries of the source, which are not always exact repeats. Equal values may be shown once.

Details: Liquid, Vibrating tube method

CCCCC(CC)COC(=O)c1ccc(C(=O)OCC(CC)CCCC)c(C(=O)OCC(CC)CCCC)c1 (stereo unspecified) [tris(2-ethylhexyl) trimellitate]
Details	mass density
328.15 K, 5110 kPa	965.697 kg/m3
328.15 K, 10110 kPa	968.884 kg/m3
328.15 K, 20120 kPa	974.939 kg/m3
328.15 K, 30110 kPa	980.701 kg/m3
333.15 K, 100 kPa	959.014 kg/m3 [middle of 4 runs]
353.15 K, 100 kPa	944.616 kg/m3 [middle of 4 runs]
363.15 K, 100 kPa	937.285 kg/m3 and 937.369 kg/m3
363.15 K, 5110 kPa	941.043 kg/m3
363.15 K, 10110 kPa	944.715 kg/m3
363.15 K, 20120 kPa	951.677 kg/m3
363.15 K, 30130 kPa	958.176 kg/m3
363.15 K, 40130 kPa	964.291 kg/m3
363.15 K, 50140 kPa	969.983 kg/m3
373.15 K, 100 kPa	930.229 kg/m3 and 930.252 kg/m3
383.15 K, 100 kPa	923.009 kg/m3 and 923.041 kg/m3 and 923.028 kg/m3
388.15 K, 100 kPa	919.579 kg/m3
388.15 K, 2640 kPa	921.672 kg/m3
388.15 K, 5170 kPa	923.804 kg/m3
388.15 K, 7730 kPa	925.892 kg/m3
388.15 K, 10170 kPa	927.866 kg/m3
388.15 K, 15260 kPa	931.875 kg/m3
388.15 K, 20280 kPa	935.659 kg/m3
388.15 K, 30390 kPa	942.915 kg/m3
388.15 K, 40500 kPa	949.605 kg/m3
388.15 K, 50560 kPa	955.87 kg/m3
388.15 K, 68700 kPa	966.125 kg/m3
393.15 K, 100 kPa	915.76 kg/m3 and 915.768 kg/m3
403.15 K, 100 kPa	908.475 kg/m3 and 908.487 kg/m3 and 908.679 kg/m3
403.15 K, 2640 kPa	910.921 kg/m3
403.15 K, 5110 kPa	912.879 kg/m3
403.15 K, 5170 kPa	913.199 kg/m3
403.15 K, 7690 kPa	915.392 kg/m3
403.15 K, 10110 kPa	917.229 kg/m3
403.15 K, 10220 kPa	917.585 kg/m3
403.15 K, 15270 kPa	921.805 kg/m3
403.15 K, 20110 kPa	925.405 kg/m3
403.15 K, 20320 kPa	925.852 kg/m3
403.15 K, 30120 kPa	932.929 kg/m3
403.15 K, 30380 kPa	933.471 kg/m3
403.15 K, 40120 kPa	939.962 kg/m3
403.15 K, 40430 kPa	940.482 kg/m3
403.15 K, 50130 kPa	946.45 kg/m3
403.15 K, 50540 kPa	947.085 kg/m3
403.15 K, 68140 kPa	957.148 kg/m3
403.15 K, 68470 kPa	957.846 kg/m3
413.15 K, 100 kPa	901.142 kg/m3 and 901.152 kg/m3
423.15 K, 100 kPa	893.777 kg/m3 and 893.78 kg/m3
423.15 K, 2590 kPa	896.162 kg/m3
423.15 K, 5100 kPa	898.654 kg/m3
423.15 K, 7590 kPa	901.053 kg/m3
423.15 K, 10100 kPa	903.407 kg/m3
423.15 K, 20110 kPa	912.286 kg/m3
423.15 K, 30120 kPa	920.442 kg/m3
423.15 K, 40120 kPa	927.911 kg/m3
423.15 K, 50120 kPa	934.915 kg/m3
423.15 K, 68140 kPa	946.287 kg/m3
